From paper PMC5011342, “A high throughput drug screening assay to identify compounds that promote oligodendrocyte differentiation using acutely dissociated and purified oligodendrocyte precursor cells” (BMC Research Notes, 2016)
Read-outs that look alike come from different tables or passages of the source.

Legend:
[1] = test system: acutely dissociated and purified rat OPCs; assay: Acute OL differentiation assay (MBP expression/cell, immunofluorescent image quantification); format: cell-based; conditions: sheet "All OLga data"; for activation at 0.08 µM / activation at 0.4 µM / activation at 2 µM / activation at 10 µM: Rattus norvegicus; for activation at 0.08 µM: test compound at 0.08 uM, read-out: 0.08 uM (% Quet)
Method in brief: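 Oligodendrocyte precursor cells were enriched from P6-P7 Sprague–Dawley rat brains by immunopanning (RAN-2 and GalC depletion, O4 selection), plated at 5000 cells/well in serum-free, mitogen-free differentiation media on PDL/laminin 96-well view plates, centrifuged at 200×g, and pre-incubated 1–2 h before test compounds were added in quadruplicate. On DIV4, cells were fixed, stained for MBP and DAPI, imaged automatically, and MBP expression per cell was quantified.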

[2] = test system: expanded OPCs; assay: cells; conditions: for viability at 0.1 µM / viability at 1 µM / viability at 10 µM: Rattus norvegicus, 72 h
Method in brief: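 Expanded OPCs seeded at 10,000 cells/well in differentiation media, then exposed to NCC library compounds at 10, 1 and 0.1 µM (quadruplicate, 0.1% DMSO) for three days. Viability read as alamarBlue fluorescence (560/590 nm) after 4 h at 37 °C; tunicamycin 5 ng/ml served as toxicity control.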

[3] = test compound at 0.4 uM, NCC library screen, relative to quetiapine, read-out: 0.4 uM (% Quet)
[4] = read-out: 0.1 µM (% DMSO), alamarBlue viability, NCC library compound at 0.1 µM, sheet "All Tox data"
[5] = read-out: 1 µM (% DMSO), alamarBlue viability, NCC library compound at 1 µM, sheet "All Tox data"
[6] = read-out: 10 µM (% DMSO), alamarBlue viability, NCC library compound at 10 µM, sheet "All Tox data"
[7] = test compound at 2 uM, MBP expression relative to quetiapine, NCC library screen, read-out: 2 uM (% Quet)
[8] = test compound at 10 uM, MBP expression relative to quetiapine, NCC library screen, read-out: 10 uM (% Quet)
[9] = alamarBlue viability of expanded OPCs, compound at 0.1 µM, relative to DMSO control
[10] = alamarBlue viability of expanded OPCs, compound at 1 µM, relative to DMSO control
[11] = alamarBlue viability of expanded OPCs, compound at 10 µM, relative to DMSO control
[12] = test compound at 2 uM, NCC library screen, relative to quetiapine, read-out: 2 uM (% Quet)
[13] = test compound at 10 uM, NCC library screen, relative to quetiapine, read-out: 10 uM (% Quet)
[14] = test compound at 0.4 uM, MBP expression relative to quetiapine, NCC library screen, read-out: 0.4 uM (% Quet)
[15] = 2 uM test compound, relative to quetiapine, read-out: OL differentiation, 2 uM (% Quet)
[16] = 10 uM test compound, relative to quetiapine, read-out: OL differentiation, 10 uM (% Quet)
[17] = read-out: 0.1 µM (% DMSO), alamarBlue viability of expanded OPCs, compound at 0.1 µM, sheet All Tox data
[18] = read-out: 1 µM (% DMSO), alamarBlue viability of expanded OPCs, compound at 1 µM, sheet All Tox data
[19] = read-out: 10 µM (% DMSO), alamarBlue viability of expanded OPCs, compound at 10 µM, sheet All Tox data
[20] = 0.4 uM test compound, relative to quetiapine, read-out: OL differentiation, 0.4 uM (% Quet)

CCOC(=O)C1=C(C)NC(C)=C(C(=O)OCC)C1c1ccccc1/C=C/C(=O)OC(C)(C)C [Lacidipine]
activation at 0.08 µM ([1]; NCC library screen, relative to quetiapine): -1.1% | activation at 0.4 µM [1, 3]: -11.2% | viability at 0.1 µM [2, 4]: 64.4% | viability at 1 µM [2, 5]: 55.3% | viability at 10 µM [2, 6]: 8.7%

OC(Cn1cncn1)(Cn1cncn1)c1ccc(F)cc1F [Fluconazole]
activation at 2 µM [1, 7]: 0.9% | activation at 10 µM [1, 8]: -44.2% | 0.1 µM (% DMSO) [2, 9]: 89.6 % DMSO | 1 µM (% DMSO) [2, 10]: 88.1 % DMSO | 10 µM (% DMSO) [2, 11]: 92.1 % DMSO

C[C@@H]1C[C@H]2[C@@H]3CCC4=CC(=O)C=C[C@]4(C)[C@@]3(F)[C@@H](O)C[C@]2(C)[C@@]1(O)C(=O)CO [Dexamethasone]
activation at 2 µM [1, 7]: 1.1% | activation at 10 µM [1, 8]: -24.5% | 0.1 µM (% DMSO) [2, 9]: 108.6 % DMSO | 1 µM (% DMSO) [2, 10]: 109.4 % DMSO | 10 µM (% DMSO) [2, 11]: 109.8 % DMSO

CCCC(C)(COC(N)=O)COC(=O)NC(C)C (stereo not drawn) [Carisoprodol]
activation at 2 µM [1, 7]: -33% | activation at 10 µM [1, 8]: -33% | 0.1 µM (% DMSO) [2, 9]: 92.1 % DMSO | 1 µM (% DMSO) [2, 10]: 90.4 % DMSO | 10 µM (% DMSO) [2, 11]: 89.3 % DMSO

N[C@@H](Cc1cc(I)c(Oc2ccc(O)c(I)c2)c(I)c1)C(=O)O [Triiodothyronine]
activation at 2 µM [1, 12]: -36.3% | activation at 10 µM [1, 13]: -37.8% | 0.1 µM (% DMSO) [2, 9]: 237.5 % DMSO | 1 µM (% DMSO) [2, 10]: 217.6 % DMSO | 10 µM (% DMSO) [2, 11]: 207.1 % DMSO

N=C(N)N [Guanidine]
2 uM (% Quet) ([1]; test compound at 2 uM, NCC library screen, relative to quetiapine): 1.4 % Quet | 10 uM (% Quet) ([1]; test compound at 10 uM, NCC library screen, relative to quetiapine): 5.3 % Quet | 0.1 µM (% DMSO) ([2]; alamarBlue viability, NCC library compound at 0.1 µM, sheet "All Tox data"): 86.5 % DMSO | 1 µM (% DMSO) ([2]; alamarBlue viability, NCC library compound at 1 µM, sheet "All Tox data"): 89.1 % DMSO | 10 µM (% DMSO) ([2]; alamarBlue viability, NCC library compound at 10 µM, sheet "All Tox data"): 85.5 % DMSO

CN1[C@@H]2CC[C@H]1C[C@@H](OC(c1ccccc1)c1ccccc1)C2 [Benzatropine]
activation at 0.4 µM [1, 14]: 123% | activation at 2 µM [1, 7]: 102% | 0.1 µM (% DMSO) [2, 9]: 139.9 % DMSO | 1 µM (% DMSO) [2, 10]: 133.9 % DMSO | 10 µM (% DMSO) [2, 11]: 38.5 % DMSO

OC[C@H]1O[C@@H](Oc2cc(O)cc(/C=C/c3ccc(O)cc3)c2)[C@H](O)[C@@H](O)[C@@H]1O [Polydatin]
activation at 2 µM [1, 15]: -15% | activation at 10 µM [1, 16]: -20.9% | viability at 0.1 µM [2, 17]: 106% | viability at 1 µM [2, 18]: 110% | viability at 10 µM [2, 19]: 113%

NS(=O)(=O)c1cc2c(cc1Cl)NCNS2(=O)=O [Hydrochlorothiazide]
activation at 2 µM [1, 7]: -36% | activation at 10 µM [1, 8]: -46% | 0.1 µM (% DMSO) [2, 9]: 96.6 % DMSO | 1 µM (% DMSO) [2, 10]: 97.1 % DMSO | 10 µM (% DMSO) [2, 11]: 90.6 % DMSO

CC1CNc2c(cccc2S(=O)(=O)N[C@@H](CCCNC(=N)N)C(=O)N2CC[C@@H](C)C[C@@H]2C(=O)O)C1 (stereo partly drawn) [Argatroban]
activation at 2 µM [1, 15]: 0.26% | activation at 10 µM [1, 16]: 2.3% | viability at 0.1 µM [2, 17]: 103% | viability at 1 µM [2, 18]: 101% | viability at 10 µM [2, 19]: 93%

Cn1c(=O)c2[nH]cnc2n(C)c1=O [Theophylline]
activation at 2 µM [1, 12]: -12% | activation at 10 µM [1, 13]: 6.9% | 0.1 µM (% DMSO) [2, 9]: 91.7 % DMSO | 1 µM (% DMSO) [2, 10]: 95.8 % DMSO | 10 µM (% DMSO) [2, 11]: 88.9 % DMSO

CN1CCN(CC/C=C2/c3ccccc3Sc3ccc(S(=O)(=O)N(C)C)cc32)CC1 [Thiothixene]
activation at 0.08 µM ([1]; MBP expression relative to quetiapine, NCC library screen): 45.9% | activation at 0.4 µM [1, 14]: 24% | 0.1 µM (% DMSO) [2, 9]: 81.2 % DMSO | 1 µM (% DMSO) [2, 10]: 49.9 % DMSO | 10 µM (% DMSO) [2, 11]: 16.9 % DMSO

Clc1ccc(CO/N=C(\Cn2ccnc2)c2ccc(Cl)cc2Cl)c(Cl)c1 [Oxiconazole]
activation at 0.4 µM [1, 20]: 96.5% | viability at 0.1 µM [2, 17]: 131% | viability at 1 µM [2, 18]: 195% | viability at 10 µM [2, 19]: 11.7%

CO/N=C(\C(=O)N[C@@H]1C(=O)N2C(C(=O)O)=C(COC(C)=O)CS[C@H]12)c1csc(N)n1 [Cefotaxime]
activation at 2 µM [1, 7]: 9.9% | activation at 10 µM [1, 8]: 8.5% | 0.1 µM (% DMSO) [2, 9]: 97.0 % DMSO | 1 µM (% DMSO) [2, 10]: 88.3 % DMSO | 10 µM (% DMSO) [2, 11]: 82.3 % DMSO

CN1CCC(=C2c3ccccc3CC(=O)c3sccc32)CC1 [Ketotifen]
activation at 0.4 µM [1, 3]: -11.2% | activation at 2 µM [1, 12]: 0.04% | viability at 0.1 µM [2, 4]: 85.1% | viability at 1 µM [2, 5]: 72.7% | viability at 10 µM [2, 6]: 36.9%

COc1ccc2[nH]cc(CCN)c2c1 [5-Methoxytryptamine]
activation at 2 µM [1, 12]: 2.6% | activation at 10 µM [1, 13]: 4.2% | viability at 0.1 µM [2, 4]: 82.9% | viability at 1 µM [2, 5]: 83.6% | viability at 10 µM [2, 6]: 78.8%

CCc1cc(C(N)=S)ccn1 [Ethionamide]
activation at 2 µM [1, 12]: -7.9% | activation at 10 µM [1, 13]: 7.6% | 0.1 µM (% DMSO) [2, 9]: 89.6 % DMSO | 1 µM (% DMSO) [2, 10]: 86.5 % DMSO | 10 µM (% DMSO) [2, 11]: 79.6 % DMSO

COc1cc2c(cc1OC)[C@@]13CCN4CC5=CCO[C@H]6CC(=O)N2[C@H]1[C@H]6[C@H]5C[C@H]43 [Brucine]
activation at 0.4 µM [1, 3]: -2.6% | activation at 2 µM [1, 12]: 11% | viability at 0.1 µM [2, 4]: 93% | viability at 1 µM [2, 5]: 79.4% | viability at 10 µM [2, 6]: 46.6%

CCC1(c2ccccc2)C(=O)NCNC1=O [Primidone]
activation at 2 µM [1, 12]: 1.4% | activation at 10 µM [1, 13]: 15.6% | viability at 0.1 µM [2, 4]: 86.9% | viability at 1 µM [2, 5]: 89.5% | viability at 10 µM [2, 6]: 82.3%

O=C1[C@H](CC[C@H](O)c2ccc(F)cc2)[C@@H](c2ccc(O)cc2)N1c1ccc(F)cc1 [Ezetimibe]
activation at 0.4 µM [1, 20]: -41.3% | activation at 2 µM [1, 15]: -114% | viability at 0.1 µM [2, 17]: 93.7% | viability at 1 µM [2, 18]: 87.4% | viability at 10 µM [2, 19]: 48.7%

c1cncc([C@@H]2CCCN2)c1 [Nornicotine]
activation at 2 µM [1, 15]: 18.1% | activation at 10 µM [1, 16]: 10.4% | viability at 0.1 µM [2, 17]: 86% | viability at 1 µM [2, 18]: 101% | viability at 10 µM [2, 19]: 98.4%

COc1ccccc1N1CCN(CCCNc2cc(=O)n(C)c(=O)n2C)CC1 [Urapidil]
activation at 2 µM [1, 15]: 24.2% | activation at 10 µM [1, 16]: 8.4% | viability at 0.1 µM [2, 17]: 84.5% | viability at 1 µM [2, 18]: 89.8% | viability at 10 µM [2, 19]: 96.2%

CCN(CC)CC(=O)Nc1c(C)cccc1C [Lidocaine]
activation at 2 µM [1, 15]: -0.03% | activation at 10 µM [1, 16]: 17.6% | viability at 0.1 µM [2, 17]: 84.8% | viability at 1 µM [2, 18]: 86% | viability at 10 µM [2, 19]: 85.5%
